Key:
Type in all cases: biochemical
Conditions in all cases: read-out: Activity of the protein kinase when treated with compound I-1 (% control)
TBK1 = TBK1 (Homo sapiens, UniProt Q9UHD2); experiment: Protein kinase assay ([γ-32P] ATP), TBK1
Procedure: (§1) In another set of experiments, the activities of the compounds described herein against various protein kinases were determined according to the methods reported in Hastie et al., Nature Protocols, 2006, 1, 968-971.
(§2) Enzyme dilution buffer. This buffer consisted of 50 mM Tris-HCl, pH 7.5, 0.1 mM EGTA, 1 mg ml^−1 bovine serum albumin and 0.1% (vol/vol) 2-mercaptoethanol.
(§3) 10× concentrated assay buffer. An assay buffer of 500 mM Tris-HCl, pH 7.5, 1 mM EGTA, and 100 mM magnesium acetate was used for assay of a wide variety of protein kinases. In some experiments, other cofactors were included (e.g., calcium ions and calmodulin were included for assay of calcium-calmodulindependent protein kinases).
(§4) 1 mM [γ-^32P] ATP. The specific activity of the [γ-^32P] ATP solution was 1×10^5 to 1×10^6 c.p.m. per nmol depending on what was needed to produce an optimal signal/noise ratio. […] To measure the concentration of ATP, a sample of such a stock solution was diluted to 20 μM, and the absorbance of the diluted sample was measured at 259 nm. The absorbance of a 20-μM stock solution of ATP at 259 nm was about 0.31. […] ATP to produce a radioactivity of 1×10^5 to 1×10^6 c.p.m. per nmol. […]
(§5) 13) Measure radioactivity in the samples by Cerenkov counting (e.g., without liquid scintillation fluid) in a liquid scintillation counter using a “^32P program”. […]

PAK5 = PAK5 (Homo sapiens, UniProt Q9P286); experiment: Protein kinase assay ([γ-32P] ATP), PAK5
Procedure: as §1, §2, §3, §4, §5

EPH-B2 = EPH-B2 (Homo sapiens, UniProt P29323); experiment: Protein kinase assay ([γ-32P] ATP), EPH-B2
Chain of EPH-B2 (P29323 19-1055): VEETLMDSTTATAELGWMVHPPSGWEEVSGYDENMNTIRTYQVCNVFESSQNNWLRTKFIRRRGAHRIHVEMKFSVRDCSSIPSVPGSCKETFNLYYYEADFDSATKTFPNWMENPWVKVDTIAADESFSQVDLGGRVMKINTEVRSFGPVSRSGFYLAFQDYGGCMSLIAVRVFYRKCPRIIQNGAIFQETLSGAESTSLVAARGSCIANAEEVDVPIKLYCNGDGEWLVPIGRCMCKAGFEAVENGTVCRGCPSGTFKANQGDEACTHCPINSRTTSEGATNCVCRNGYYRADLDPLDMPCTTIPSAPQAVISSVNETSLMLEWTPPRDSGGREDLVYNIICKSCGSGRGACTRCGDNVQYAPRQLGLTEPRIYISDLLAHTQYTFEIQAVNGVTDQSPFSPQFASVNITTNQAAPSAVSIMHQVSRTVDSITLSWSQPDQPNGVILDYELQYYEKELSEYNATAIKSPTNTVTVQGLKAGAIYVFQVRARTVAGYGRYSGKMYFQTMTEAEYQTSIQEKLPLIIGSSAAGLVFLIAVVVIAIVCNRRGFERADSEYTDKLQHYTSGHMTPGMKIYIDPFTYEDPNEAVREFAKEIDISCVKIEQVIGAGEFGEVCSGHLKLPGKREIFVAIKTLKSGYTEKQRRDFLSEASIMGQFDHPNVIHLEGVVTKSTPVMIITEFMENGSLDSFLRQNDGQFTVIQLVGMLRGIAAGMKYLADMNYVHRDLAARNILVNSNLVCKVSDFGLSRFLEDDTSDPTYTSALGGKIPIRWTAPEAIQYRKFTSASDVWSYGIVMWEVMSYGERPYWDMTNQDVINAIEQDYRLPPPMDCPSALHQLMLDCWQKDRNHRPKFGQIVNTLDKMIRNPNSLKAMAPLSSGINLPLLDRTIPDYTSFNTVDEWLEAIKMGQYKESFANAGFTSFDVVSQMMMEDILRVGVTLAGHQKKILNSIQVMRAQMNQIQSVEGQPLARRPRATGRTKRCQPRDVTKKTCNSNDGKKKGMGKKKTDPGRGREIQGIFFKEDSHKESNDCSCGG
Procedure: as §1, §2, §3, §4, §5

JAK2 = JAK2 (Homo sapiens, UniProt O60674); experiment: Protein kinase assay ([γ-32P] ATP), JAK2
Procedure: as §1, §2, §3, §4, §5

PIM1 = PIM1 (Homo sapiens, UniProt P11309); experiment: Protein kinase assay ([γ-32P] ATP), PIM1
Chain of PIM1 (P11309 whole entry): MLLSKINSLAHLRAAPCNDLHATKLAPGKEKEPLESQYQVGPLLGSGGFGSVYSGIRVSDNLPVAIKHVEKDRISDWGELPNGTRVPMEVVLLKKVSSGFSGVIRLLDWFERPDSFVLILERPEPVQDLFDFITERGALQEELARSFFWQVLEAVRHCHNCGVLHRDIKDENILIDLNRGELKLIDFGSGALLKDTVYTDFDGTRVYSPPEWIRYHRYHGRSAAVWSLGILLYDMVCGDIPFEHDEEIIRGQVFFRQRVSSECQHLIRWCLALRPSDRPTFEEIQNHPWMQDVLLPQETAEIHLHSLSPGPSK
Procedure: as §1, §2, §3, §4, §5

ASK1 = ASK1 (Homo sapiens, UniProt Q99683); experiment: Protein kinase assay ([γ-32P] ATP), ASK1
Procedure: as §1, §2, §3, §4, §5

DYRK1A = DYRK1A (Homo sapiens, UniProt Q13627); experiment: Protein kinase assay ([γ-32P] ATP), DYRK1A
Procedure: as §1, §2, §3, §4, §5

TLK1 = TLK1 (Homo sapiens, UniProt Q9UKI8); experiment: Protein kinase assay ([γ-32P] ATP), TLK1
Procedure: as §1, §2, §3, §4, §5

DDR2 = DDR2 (Homo sapiens, UniProt Q16832); experiment: Protein kinase assay ([γ-32P] ATP), DDR2
Chain of DDR2 (Q16832 22-855): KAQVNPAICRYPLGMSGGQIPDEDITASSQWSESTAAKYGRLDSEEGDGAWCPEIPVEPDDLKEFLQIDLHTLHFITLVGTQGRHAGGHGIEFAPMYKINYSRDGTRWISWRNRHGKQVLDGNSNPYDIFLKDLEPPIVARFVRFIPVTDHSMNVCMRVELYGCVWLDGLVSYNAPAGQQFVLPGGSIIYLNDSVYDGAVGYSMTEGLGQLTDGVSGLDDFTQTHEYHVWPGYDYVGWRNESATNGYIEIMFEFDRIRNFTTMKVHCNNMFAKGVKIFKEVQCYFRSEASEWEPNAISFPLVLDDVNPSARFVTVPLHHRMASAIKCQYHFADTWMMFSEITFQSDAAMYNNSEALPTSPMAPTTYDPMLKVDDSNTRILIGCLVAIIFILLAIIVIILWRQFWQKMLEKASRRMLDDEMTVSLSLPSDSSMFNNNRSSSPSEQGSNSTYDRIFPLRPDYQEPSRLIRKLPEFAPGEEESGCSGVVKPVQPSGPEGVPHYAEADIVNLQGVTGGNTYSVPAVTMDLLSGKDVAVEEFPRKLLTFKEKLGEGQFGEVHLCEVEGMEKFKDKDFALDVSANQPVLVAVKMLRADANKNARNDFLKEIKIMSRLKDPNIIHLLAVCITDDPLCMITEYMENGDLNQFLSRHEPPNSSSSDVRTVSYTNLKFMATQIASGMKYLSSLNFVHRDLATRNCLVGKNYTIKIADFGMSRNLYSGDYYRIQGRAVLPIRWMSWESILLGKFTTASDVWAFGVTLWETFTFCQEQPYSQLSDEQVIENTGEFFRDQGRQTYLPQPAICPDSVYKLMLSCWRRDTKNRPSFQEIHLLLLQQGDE
Procedure: as §1, §2, §3, §4, §5

MST2 = MST2 (Homo sapiens, UniProt Q13188); experiment: Protein kinase assay ([γ-32P] ATP), MST2
Chain of MST2 (Q13188 whole entry): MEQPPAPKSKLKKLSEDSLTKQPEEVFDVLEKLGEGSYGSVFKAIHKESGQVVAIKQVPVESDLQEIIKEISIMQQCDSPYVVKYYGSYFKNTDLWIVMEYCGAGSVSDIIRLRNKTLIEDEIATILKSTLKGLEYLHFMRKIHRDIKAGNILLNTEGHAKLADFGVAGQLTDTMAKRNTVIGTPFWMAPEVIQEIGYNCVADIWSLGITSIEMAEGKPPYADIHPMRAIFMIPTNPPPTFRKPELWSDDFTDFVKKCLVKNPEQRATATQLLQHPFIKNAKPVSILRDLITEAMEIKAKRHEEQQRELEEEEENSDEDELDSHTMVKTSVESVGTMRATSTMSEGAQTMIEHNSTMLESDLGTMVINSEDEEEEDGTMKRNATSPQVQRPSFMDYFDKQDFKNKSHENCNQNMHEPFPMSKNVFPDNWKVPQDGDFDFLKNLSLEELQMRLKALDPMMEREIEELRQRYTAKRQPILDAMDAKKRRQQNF
Procedure: as §1, §2, §3, §4, §5

ERK2 = ERK2 (Homo sapiens, UniProt P28482); experiment: Protein kinase assay ([γ-32P] ATP), ERK2
Chain of ERK2 (P28482 whole entry): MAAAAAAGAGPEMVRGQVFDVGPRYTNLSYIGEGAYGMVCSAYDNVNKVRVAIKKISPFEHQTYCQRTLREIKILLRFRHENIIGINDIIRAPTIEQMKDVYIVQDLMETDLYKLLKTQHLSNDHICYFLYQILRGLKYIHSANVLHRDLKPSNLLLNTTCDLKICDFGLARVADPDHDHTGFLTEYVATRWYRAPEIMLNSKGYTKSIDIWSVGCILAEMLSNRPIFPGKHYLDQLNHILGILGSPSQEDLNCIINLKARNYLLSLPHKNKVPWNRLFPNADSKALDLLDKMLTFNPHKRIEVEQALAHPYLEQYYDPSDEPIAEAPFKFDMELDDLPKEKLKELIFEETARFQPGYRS
Procedure: as §1, §2, §3, §4, §5

MSK1 = MSK1 (Homo sapiens, UniProt O75582); experiment: Protein kinase assay ([γ-32P] ATP), MSK1
Chain of MSK1 (O75582 whole entry): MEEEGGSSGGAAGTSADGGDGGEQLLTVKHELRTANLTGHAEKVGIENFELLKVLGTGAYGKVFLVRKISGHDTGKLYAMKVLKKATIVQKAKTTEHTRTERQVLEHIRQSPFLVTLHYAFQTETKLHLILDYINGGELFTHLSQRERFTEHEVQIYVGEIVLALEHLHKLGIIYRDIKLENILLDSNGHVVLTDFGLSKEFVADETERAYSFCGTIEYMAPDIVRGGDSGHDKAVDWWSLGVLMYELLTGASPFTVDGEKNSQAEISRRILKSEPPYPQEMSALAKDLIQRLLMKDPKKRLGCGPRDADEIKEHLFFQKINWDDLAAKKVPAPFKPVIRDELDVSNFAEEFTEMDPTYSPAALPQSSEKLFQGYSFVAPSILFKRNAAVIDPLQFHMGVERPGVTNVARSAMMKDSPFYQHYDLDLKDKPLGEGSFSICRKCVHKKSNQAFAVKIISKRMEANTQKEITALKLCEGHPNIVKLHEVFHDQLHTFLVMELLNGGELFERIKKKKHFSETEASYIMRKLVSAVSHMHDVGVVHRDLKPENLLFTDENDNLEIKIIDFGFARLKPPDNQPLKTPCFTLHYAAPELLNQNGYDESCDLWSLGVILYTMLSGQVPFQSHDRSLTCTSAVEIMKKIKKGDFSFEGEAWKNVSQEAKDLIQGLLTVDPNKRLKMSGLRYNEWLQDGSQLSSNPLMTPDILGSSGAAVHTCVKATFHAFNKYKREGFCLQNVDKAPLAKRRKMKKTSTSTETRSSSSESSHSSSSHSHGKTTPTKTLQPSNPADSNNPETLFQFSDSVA
Procedure: as §1, §2, §3, §4, §5

MAPKAP-K3 = MAPKAP-K3 (Homo sapiens, UniProt Q16644); experiment: Protein kinase assay ([γ-32P] ATP), MAPKAP-K3
Chain of MAPKAP-K3 (Q16644 whole entry): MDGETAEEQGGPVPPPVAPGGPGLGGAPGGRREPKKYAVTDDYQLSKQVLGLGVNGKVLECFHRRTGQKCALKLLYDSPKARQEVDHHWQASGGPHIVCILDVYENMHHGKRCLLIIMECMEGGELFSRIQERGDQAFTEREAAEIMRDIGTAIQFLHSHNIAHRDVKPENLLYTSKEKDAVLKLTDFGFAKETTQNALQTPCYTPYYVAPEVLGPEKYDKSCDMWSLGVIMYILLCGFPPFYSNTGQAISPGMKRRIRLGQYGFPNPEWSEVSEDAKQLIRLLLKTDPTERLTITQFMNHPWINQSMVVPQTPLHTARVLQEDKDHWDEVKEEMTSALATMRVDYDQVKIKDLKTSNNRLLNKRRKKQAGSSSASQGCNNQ
Procedure: as §1, §2, §3, §4, §5

RSK2 = RSK2 (Homo sapiens, UniProt P51812); experiment: Protein kinase assay ([γ-32P] ATP), RSK2
Procedure: as §1, §2, §3, §4, §5

OSR1 = OSR1 (Homo sapiens, UniProt O95747); experiment: Protein kinase assay ([γ-32P] ATP), OSR1
Procedure: as §1, §2, §3, §4, §5

MKK2 = MKK2 (Homo sapiens, UniProt P36507); experiment: Protein kinase assay ([γ-32P] ATP), MKK2
Procedure: as §1, §2, §3, §4, §5

MKK1 = MKK1 (Homo sapiens, UniProt Q02750); experiment: Protein kinase assay ([γ-32P] ATP), MKK1
Procedure: as §1, §2, §3, §4, §5

[1] = 0.1 μM of compound I-1, DMSO control = 100%
[2] = 1 μM of compound I-1, DMSO control = 100%

Chain of TBK1 (Q9UHD2 whole entry, species assumed): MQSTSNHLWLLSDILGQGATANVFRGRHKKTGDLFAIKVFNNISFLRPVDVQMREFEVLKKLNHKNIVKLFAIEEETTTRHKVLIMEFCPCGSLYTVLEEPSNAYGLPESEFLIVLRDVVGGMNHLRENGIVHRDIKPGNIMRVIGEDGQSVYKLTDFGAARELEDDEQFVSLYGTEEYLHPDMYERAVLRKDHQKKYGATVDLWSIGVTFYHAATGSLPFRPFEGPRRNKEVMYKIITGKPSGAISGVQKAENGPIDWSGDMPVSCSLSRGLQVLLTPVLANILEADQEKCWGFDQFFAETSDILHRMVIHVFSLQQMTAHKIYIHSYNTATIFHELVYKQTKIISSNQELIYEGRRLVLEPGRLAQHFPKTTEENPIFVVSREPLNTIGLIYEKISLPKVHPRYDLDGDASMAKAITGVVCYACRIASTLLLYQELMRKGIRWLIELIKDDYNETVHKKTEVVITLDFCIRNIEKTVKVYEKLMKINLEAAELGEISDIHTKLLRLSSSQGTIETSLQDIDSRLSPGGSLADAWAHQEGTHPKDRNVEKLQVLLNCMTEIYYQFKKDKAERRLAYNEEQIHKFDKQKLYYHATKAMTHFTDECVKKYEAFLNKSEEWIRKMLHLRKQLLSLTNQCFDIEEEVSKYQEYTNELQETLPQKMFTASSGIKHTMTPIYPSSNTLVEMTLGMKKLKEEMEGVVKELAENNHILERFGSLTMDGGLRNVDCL

Cc1cccc(C)c1NC(=O)N1C/C=C\COc2cccc(c2)Nc2cc1ncn2 [Compound I-1]
remaining activity at 0.1 µM (TBK1; [1]): 109%
remaining activity at 1 µM (TBK1; [2]): 83%
remaining activity at 0.1 µM (PAK5; [1]): 90%
remaining activity at 1 µM (PAK5; [2]): 64%
remaining activity at 0.1 µM (EPH-B2; [1]): 54%
remaining activity at 1 µM (EPH-B2; [2]): 1%
remaining activity at 0.1 µM (JAK2; [1]): 100%
remaining activity at 1 µM (JAK2; [2]): 72%
remaining activity at 0.1 µM (PIM1; [1]): 132%
remaining activity at 1 µM (PIM1; [2]): 93%
remaining activity at 0.1 µM (ASK1; [1]): 117%
remaining activity at 1 µM (ASK1; [2]): 96%
remaining activity at 0.1 µM (DYRK1A; [1]): 104%
remaining activity at 1 µM (DYRK1A; [2]): 86%
remaining activity at 0.1 µM (TLK1; [1]): 112%
remaining activity at 1 µM (TLK1; [2]): 92%
remaining activity at 0.1 µM (DDR2; [1]): 28%
remaining activity at 1 µM (DDR2; [2]): 3%
remaining activity at 0.1 µM (MST2; [1]): 99%
remaining activity at 1 µM (MST2; [2]): 98%
remaining activity at 0.1 µM (ERK2; [1]): 104%
remaining activity at 1 µM (ERK2; [2]): 80%
remaining activity at 0.1 µM (MSK1; [1]): 107%
remaining activity at 1 µM (MSK1; [2]): 81%
remaining activity at 0.1 µM (MAPKAP-K3; [1]): 108%
remaining activity at 1 µM (MAPKAP-K3; [2]): 89%
remaining activity at 0.1 µM (RSK2; [1]): 98%
remaining activity at 1 µM (RSK2; [2]): 81%
remaining activity at 0.1 µM (OSR1; [1]): 97%
remaining activity at 1 µM (OSR1; [2]): 79%
remaining activity at 0.1 µM (MKK2; [1]): 119%
remaining activity at 1 µM (MKK2; [2]): 77%
remaining activity at 0.1 µM (MKK1; [1]): 96%
remaining activity at 1 µM (MKK1; [2]): 81%
